Measurements from ChEMBL document CHEMBL3813632, “Thiazolo[3,2-a]benzimidazol-3(2H)-one derivatives: Structure-activity relationships of selective nucleotide pyrophosphatase/phosphodiesterase1 (NPP1) inhibitors” (Bioorg Med Chem, 2016).
Activity calls are given as the source filed them. The rule behind the calls is not given here.

Assays:
[1] = species on record: Homo sapiens; test: Selectivity ratio of Ki for human recombinant soluble NTPDase3 to Ki for human recombinant NPP1
[2] = target: T1, Ectonucleotide pyrophosphatase/phosphodiesterase family member 1 (Homo sapiens, UniProt P22413); test: Inhibition of human recombinant NPP1 expressed in insect SF9 cells using ATP as substrate preincubated with substrate followed by protein addition and subsequent incubation for 30 mins by capillary electrophoresis
T1 sequence (P22413 whole entry): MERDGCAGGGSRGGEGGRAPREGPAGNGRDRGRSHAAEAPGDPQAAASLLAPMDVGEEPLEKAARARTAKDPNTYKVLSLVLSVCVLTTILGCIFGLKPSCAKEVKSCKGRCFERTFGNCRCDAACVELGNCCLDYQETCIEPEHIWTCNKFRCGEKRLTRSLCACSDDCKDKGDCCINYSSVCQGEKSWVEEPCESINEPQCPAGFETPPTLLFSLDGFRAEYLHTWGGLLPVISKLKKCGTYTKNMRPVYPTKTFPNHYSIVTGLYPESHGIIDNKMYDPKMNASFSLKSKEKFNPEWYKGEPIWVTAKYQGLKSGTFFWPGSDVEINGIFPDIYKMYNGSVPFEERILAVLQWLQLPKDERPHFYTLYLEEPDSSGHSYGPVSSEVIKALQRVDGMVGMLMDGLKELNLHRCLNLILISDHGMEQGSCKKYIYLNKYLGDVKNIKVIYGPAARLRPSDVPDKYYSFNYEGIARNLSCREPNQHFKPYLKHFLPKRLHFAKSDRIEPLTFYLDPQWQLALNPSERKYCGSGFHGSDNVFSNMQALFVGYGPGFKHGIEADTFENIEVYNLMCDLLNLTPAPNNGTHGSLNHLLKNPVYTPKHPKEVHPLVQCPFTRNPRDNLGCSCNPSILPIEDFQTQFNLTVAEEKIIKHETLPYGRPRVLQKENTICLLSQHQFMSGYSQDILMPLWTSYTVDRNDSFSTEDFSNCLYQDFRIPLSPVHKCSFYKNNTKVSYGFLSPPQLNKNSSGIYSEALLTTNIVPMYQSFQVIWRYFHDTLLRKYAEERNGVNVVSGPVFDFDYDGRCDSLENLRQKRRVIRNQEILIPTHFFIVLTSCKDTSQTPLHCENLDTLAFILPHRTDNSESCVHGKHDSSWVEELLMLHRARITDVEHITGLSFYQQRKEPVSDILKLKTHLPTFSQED

[3] = Chemical stability of the compound assessed as compound remaining at pH 9 at 37 degC after 8 hrs by HPLC-MS analysis; format: physicochemical; settings: buffer, read-out: Stability
[4] = species on record: Homo sapiens; test: Selectivity ratio of Ki for human recombinant soluble NTPDase1 to Ki for human recombinant NPP1
[5] = species on record: Homo sapiens; test: Selectivity ratio of Ki for human recombinant TNAP to Ki for human recombinant NPP1
[6] = species on record: Homo sapiens; test: Selectivity ratio of Ki for human recombinant soluble NTPDase2 to Ki for human recombinant NPP1
[7] = target: T2, Ectonucleoside triphosphate diphosphohydrolase 2 (Homo sapiens) (UniProt Q9Y5L3); test: Inhibition of human recombinant NTPDase2 expressed in CHO cells using ATP as substrate at 10 to 1000 uM preincubated with substrate followed by protein addition and subsequent incubation for 30 mins by capillary electrophoresis
T2 sequence (whole entry): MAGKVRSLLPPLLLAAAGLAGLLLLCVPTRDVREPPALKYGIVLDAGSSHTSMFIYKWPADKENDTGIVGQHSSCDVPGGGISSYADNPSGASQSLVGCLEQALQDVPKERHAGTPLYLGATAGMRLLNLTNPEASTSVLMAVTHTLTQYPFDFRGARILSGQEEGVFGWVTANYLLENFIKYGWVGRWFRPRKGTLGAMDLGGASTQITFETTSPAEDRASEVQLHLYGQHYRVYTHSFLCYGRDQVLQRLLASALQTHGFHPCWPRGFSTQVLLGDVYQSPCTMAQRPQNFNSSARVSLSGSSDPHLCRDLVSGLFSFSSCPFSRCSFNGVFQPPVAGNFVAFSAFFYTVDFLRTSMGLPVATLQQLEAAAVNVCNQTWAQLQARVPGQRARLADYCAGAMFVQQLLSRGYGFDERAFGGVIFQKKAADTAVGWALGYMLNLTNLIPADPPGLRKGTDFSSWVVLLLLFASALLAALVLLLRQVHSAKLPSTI

[8] = species on record: Homo sapiens; test: Selectivity ratio of Ki for human recombinant NPP2 to Ki for human recombinant NPP1
[9] = target: Autotaxin (Homo sapiens) (UniProt Q13822); test: Inhibition of human recombinant NPP2 expressed in insect SF9 cells using 1-oleoylsn-glycero-3-phosphocholine as substrate at >100 uM preincubated with substrate followed by protein addition and subsequent incubation for 60 mins by colorimetric analysis
[10] = species on record: Homo sapiens; test: Selectivity ratio of Ki for human recombinant Ecto-5'-nucleotidase to Ki for human recombinant NPP1
[11] = target: T3, Ectonucleoside triphosphate diphosphohydrolase 1 (Homo sapiens) (UniProt P49961); test: Inhibition of human recombinant soluble NTPDase1 expressed in CHO cells using ATP as substrate at 10 to 1000 uM preincubated with substrate followed by protein addition and subsequent incubation for 30 mins by capillary electrophoresis
T3 sequence (whole entry): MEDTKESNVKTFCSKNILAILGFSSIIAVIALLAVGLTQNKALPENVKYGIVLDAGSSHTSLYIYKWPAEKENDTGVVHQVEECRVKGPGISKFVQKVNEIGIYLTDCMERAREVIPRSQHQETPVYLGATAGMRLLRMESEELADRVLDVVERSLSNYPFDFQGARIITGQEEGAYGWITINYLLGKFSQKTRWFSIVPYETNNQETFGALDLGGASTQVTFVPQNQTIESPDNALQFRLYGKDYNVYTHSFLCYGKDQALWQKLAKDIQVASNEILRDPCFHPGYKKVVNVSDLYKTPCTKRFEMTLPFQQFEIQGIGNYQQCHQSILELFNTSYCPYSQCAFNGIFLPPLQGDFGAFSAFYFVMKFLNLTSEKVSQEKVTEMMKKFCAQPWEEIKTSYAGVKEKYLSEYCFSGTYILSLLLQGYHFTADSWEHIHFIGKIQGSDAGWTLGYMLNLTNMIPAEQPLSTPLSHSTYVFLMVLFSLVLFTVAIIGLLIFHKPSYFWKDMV

[12] = target: T4, Ectonucleotide pyrophosphatase/phosphodiesterase family member 1 (Homo sapiens) (UniProt P22413); test: Uncompetitive inhibition of human recombinant NPP1 expressed in insect SF9 cells using ATP as substrate up to 2.8 uM preincubated with substrate followed by protein addition and subsequent incubation for 30 mins by Hanes-Woolf plot analysis
T4 sequence (whole entry): T1 sequence (P22413 whole entry)

Ratio Ki [1]: 1000
Ki [2]: 467 nM
remaining at 8 h [3]: 70.5%
Ratio Ki [4]: 1000
Ratio Ki [5]: 1000
Ratio Ki [6]: 1000
inhibition [7]: inactive
Ratio Ki [8]: 1000
inhibition [9]: Active
Ratio Ki [10]: 1000
inhibition [11]: inactive
inhibition [12]: Active
Compound: O=c1/c(=C/c2ccc(I)o2)sc2nc3ccccc3n12
